Experimental data published in patent publication US11478550B2, “Biodegradable hydrogel and methods for use thereof” (International Business Machines Corporation, priority 2018, dated 2022).
Like-named read-outs stand apart in the source and are kept apart here.

Legend:
[1] = system: Human multiple myeloma (MM.1S) cells; assay: Cytotoxicity test (CellTiter 96 AQueous One); type: cell-based; conditions: 48 h, alone or combined with the hydrogels (FIG. 2)
Experimental: Human multiple myeloma (MM.1S) cells were seeded at a density of 10×10^3 cells per well onto a 96 well plate and incubated overnight at 37° C. On the day of treatment, the medium was removed and 90 μl of RPMI was added to each well. Following this, 10 μL of the hydrogels or micelles-containing hydrogels were added to the cells. The plate was then incubated for another 48 h at 37° C. Reagents from the CellTiter 96® AQueous One Solution Cell Proliferation Assay Kit (Promega, USA) and RPMI were then mixed at a volume ratio of 1:4 and 100 μL of this mixture was then added to each well and the cells were left to incubate in the dark at 37° C. for 2 h. Untreated cells were then used as the control. Subsequently, the absorbance at 490 nm was measured and the readings were then expressed as a percentage of the cell viability of the control.

[2] = system: refractory and/or relapsed MM; conditions: single agent; cited from earlier work
[3] = cited from earlier work

## CC(C)C[C@H](NC(=O)[C@H](Cc1ccccc1)NC(=O)c1cnccn1)B(O)O [BTZ, bortezomib]
[1]
  effect on cell viability: marked effect on cell viability
[2]
  1-year overall survival rate: 80%
  longer median time to progression compared to dexamethasone: 78%
[3]; intravenous bolus
  time to reach mean maximum plasma concentration: 3 min
[3]; subcutaneous administration
  time to reach mean maximum plasma concentration: 120 min
